This note sets out measurements from US20090042810A1, “AMPK Deficient Animals, Screening Methods, And Related Therapeutics And Diagnostics” (GenExel-Sein, Inc., priority 2007, published 2009).

Assay [1] concerns LS174T cells. The assay is described as follows: AMPK and MRLC phosphorylation in LS174T cells (immunoblot / immunostaining). Type of assay: cell-based, human. (In general: In western blotting, separated proteins are transferred to a membrane and probed.)
A further assay relates to Drosophila S2 cells. Briefly: Energy deprivation-induced MRLC phosphorylation in Drosophila S2 cells (immunoblot). Format: cell-based. The following applies: 50 mM 2DG for 4 hr.
The test system of assay [2] is LS174T cells. Briefly: Polarization of LS174T cells (actin, polarity markers, brush border). Format: cell-based, human.
A further assay concerns human AMPK (hAMPK). The assay is described as follows: In vitro kinase assay, immunoprecipitated human AMPK with MRLC substrate. Type of assay: biochemical. The following applies: 10 μM drug added to reaction solution. From the text:
(§1) Fly strains. AMPK^D1 and AMPKD2 lines were generated by imprecise excision (Lee, et al., FEBS Lett. 550, 5-10 (2003)) of AMPK^G505 line (GenExel Inc.). UAS constructs were microinjected into w^1118 embryos. LKB1- and MRLC-mutant lines were described previously (Jordan et al., J. Cell Biol. 139, 1805-1819 (1997); (Karess et al., Cell 65, 1177-1189 (1991); (Lee et al., Cell Death Differ. 13, 110-1122 (2006)). Other lines were obtained from the Bloomington Stock Center. Microscopic analyses of Drosophila tissues. Dark field, phase contrast, and SEM analyses were performed to visualize embryonic cuticle structure. Immunostaining with various antibodies were performed to visualize embryonic epithelial structure. Brain squash preparation was used to analyze genomic integrity. Kinase assays. Phosphotransferase activities were determined in a reaction mixture consisting of HEPES-Brij Buffer, ATP (γ-^32P), and protein substrates. Protein levels were visualized by immunoblot or Coomassie staining. Phosphorylated proteins were visualized by phospho-specific immunoblot or ^32P-autoradiography. Incorporated phosphates were quantified using P81 filter binding assay. Drosophila strains. […] Deletion sites of AMPK^D1 and AMPK^D2 were determined by genomic-PCR analyses. […]

Assay [3] has as its system AMPK holoenzyme purified from rat liver. The assay is described as follows: In vitro kinase assay, AMPK holoenzyme purified from rat liver with GST-MRLC / GST-ACC2 substrates. Format: biochemical. The conditions noted are these: 0.3 mM AMP; for Phosphorylation of MRLC by AMPK in presence of inhibitor (32P autoradiography): 10 μM drug added to reaction mixture, GST-MRLC substrate. The text has this: Fly strains. AMPK^D1 and AMPKD2 lines were generated by imprecise excision (Lee, et al., FEBS Lett. 550, 5-10 (2003)) of AMPK^G505 line (GenExel Inc.). UAS constructs were microinjected into w^1118 embryos. LKB1- and MRLC-mutant lines were described previously (Jordan et al., J. Cell Biol. 139, 1805-1819 (1997); (Karess et al., Cell 65, 1177-1189 (1991); (Lee et al., Cell Death Differ. 13, 110-1122 (2006)). Other lines were obtained from the Bloomington Stock Center. Microscopic analyses of Drosophila tissues. Dark field, phase contrast, and SEM analyses were performed to visualize embryonic cuticle structure. Immunostaining with various antibodies were performed to visualize embryonic epithelial structure. Brain squash preparation was used to analyze genomic integrity. Kinase assays. Phosphotransferase activities were determined in a reaction mixture consisting of HEPES-Brij Buffer, ATP (γ-^32P), and protein substrates. Protein levels were visualized by immunoblot or Coomassie staining. Phosphorylated proteins were visualized by phospho-specific immunoblot or ^32P-autoradiography. Incorporated phosphates were quantified using P81 filter binding assay. Drosophila strains. The AMPK^G505 fly line with an EP-element inserted at the AMPK locus was obtained from the Genisys Collection of EP lines (GenExel Inc., Korea), and subjected to standard imprecise excision (Lee, et al., FEBS Lett. 550, 5-10 (2003); (Lee et al., Cell Death Differ. 13, 110-1122 (2006)). HA-tagged AMPK (AMPK^WT) and its mutant forms (AMPK^KR, AMPK^TA and AMPK^TD) were subcloned into the pUAST vector and microinjected into w^1118 embryos. LKB1^X5, UAS-LKB1, spaghetti-squash^1 (sqh^1), and MRLC^EE (also referred to as sqh^EE) lines were described previously (Jordan et al., J. Cell Biol. 139, 1805-1819 (1997); (Karess et al., Cell 65, 1177-1189 (1991); (Lee et al., Cell Death Differ. 13, 110-1122 (2006)). […] Deletion sites of AMPK^D1 and AMPK^D2 were determined by genomic-PCR analyses. […]

Another assay relates to Drosophila AMPK (dAMPK). The assay is described as follows: In vitro kinase assay, immunoprecipitated Drosophila AMPK with MRLC substrate. Format: biochemical. The conditions noted are these: 10 μM drug added to reaction solution.
Description: as §1

The next assay concerns human MLCK. Briefly: In vitro kinase assay, active MLCK with MRLC substrate. Type of assay: biochemical. The conditions noted are these: 10 μM drug added to reaction solution.
Description: as §1

The structures appear in SMILES notation. Entries after “also recorded” stand apart in the source; their conditions may differ.

As to `O=CC[C@@H](O)[C@H](O)[C@H](O)CO` [2DG, 2-deoxyglucose], in the assay on LS174T cells [1] (50 mM 2DG, indicated time), the “Activation of AMPK (pAMPK)” value was “activation of AMPK”. Further, the “MRLC phosphorylation (pMRLC) in LS174T cells” value with LS174T cells [1] (2DG treatment) is 2DG-induced phosphorylation of MRLC. In addition, in the assay on Drosophila S2 cells, the “MRLC phosphorylation (pMRLC) in S2 cells” value is “enhanced MRLC phosphorylation”. Moreover, in the assay on LS174T cells [2] (50 mM 2DG, 2 hr), the “Distribution of villin, CD66/CEA and CD71/transferrin markers” value was “became dramatically polarized”. The “Cell shape / actin cytoskeleton polarization and brush border-like structure” value with LS174T cells [2] (50 mM 2DG, 2 hr, serum-free media) is reported as “dramatic change in cell shape to have polarized actin cytoskeleton with a brush border-like structure”.

As to `c1cc(-c2cnn3cc(-c4ccc(OCCN5CCCCC5)cc4)cnc23)ccn1` [Compound C], the “Human AMPK phosphorylation of MRLC in presence of drug” value in the assay with human AMPK (hAMPK) was “specifically inhibited”. In addition, the “2DG-induced MRLC phosphorylation, effect of inhibitor” value in the assay on LS174T cells [1] (10 μM Compound C 30 min before 50 mM 2DG) is reported as “suppressed”. Further, the “Phosphorylation of MRLC by AMPK in presence of inhibitor (32P autoradiography)” value in assay [3] is “inhibited the phosphorylation”. Besides, the “Drosophila AMPK phosphorylation of MRLC in presence of drug” value in the assay with Drosophila AMPK (dAMPK) was “specifically inhibited”. The “MLCK phosphorylation of MRLC in presence of drug” value in the assay with human MLCK is reported as “not”. In the assay on LS174T cells [2] (2DG 2 hr, Compound C 10 μM 30 min before 2DG, or siRNA transfection, listed as CC), the “2DG-induced actin polarization, effect of inhibitor or siRNA” value was “inhibited; also recorded: suppressed”.

As to `O=S(=O)(c1cccc2c(I)cccc12)N1CCCNCC1` [ML-7], the “Phosphorylation of MRLC by AMPK in presence of inhibitor (32P autoradiography)” value in assay [3] was “did not”. The “Drosophila AMPK phosphorylation of MRLC in presence of drug” value in the assay on Drosophila AMPK (dAMPK) was “not”. In addition, the “MLCK phosphorylation of MRLC in presence of drug” value in the assay with human MLCK is recorded as “specifically inhibited”.

In the case of `Nc1ncnc2c1ncn2[C@@H]1O[C@H](COP(=O)(O)O)[C@@H](O)[C@H]1O` [AMP], in assay [3] (human GST-MRLC substrate), the “Phosphorylation of full-length MRLC by AMPK on addition of AMP” value is on record as “further enhanced”.
